From patent US12486303B2, “Use of peptide for inhibiting functions and expressions of multiple disease biomarkers” (NIBEC CO., LTD., priority 2018, dated 2025) come the findings set out here.

Peptide text beside a SMILES is read from it.

In one assay the target is T1, HDAC5 protein (Homo sapiens, UniProt Q9UQL6).
T1 construct: purchased Abcam
The assay is described as follows: Biacore T200 binding affinity to immobilised HDAC5 protein. Conditions: CM5 chip, 1:1 binding model; for kon: read-out: ka. A general note: In SPR one partner is held on a chip, and binding of the other changes the refractive index at the surface.

The test system of assay [1] is collagen-induced arthritis (CIA) rats. The assay is described as follows: Collagen-induced arthritis animal model. Type of assay: in vivo, Wistar rats. The text has this: In order to determine whether or not the peptide according to the present invention is effective in treating rheumatoid arthritis in vivo, the effect of treating arthritis thereof was detected in a collagen-induced arthritis animal model. For this purpose, female Wistar rats (105-135 g, n=67) were purchased from Harlan Co. Ltd. (Indianapolis, IN, USA). All rats were bred in a pathogen-free environment and sterilized standard rat feed (Harlan Co. Ltd, USA) and water were freely fed to the rats. Animal experiments were conducted with the approval of the Institutional Animal Care and Use Committee (IACUC) of Seoul National University. Collagen-induced arthritis was induced in a known manner (Nishikawa et al., Arthritis and rheumatism. 2003; 48:2670-81).
Specifically, 500 μg of bovine collagen type II was injected along with a mixture of 0.5 mL of 0.1 M acetic acid and 0.5 mL of Freund's incomplete adjuvant into rat muscle. On the 7th day, 0.5 mL of 0.1 M acetic acid and 0.5 mL of Freund's incomplete adjuvant were further inoculated along with 250 μg of bovine collagen type II to produce collagen-induced arthritis (CIA) rats. The rats were classified into a CIA-induced group (n=10), a CIA-induced group injected with a low concentration of the peptide of SEQ ID NO: 1 (LD AIP, 15 mg/kg, n=10), a CIA-induced group injected with a high concentration of the peptide of SEQ ID NO: 1 (HD AIP, 30 mg/kg, n=10), a CIA-induced group injected with etanercept (Enbrel) (10 mg/kg, n=10), and a normal group (n=6). From 28 days after the first collagen injection, the peptide of SEQ ID NO: 1 was injected subcutaneously into the back of the neck twice a week over 4 weeks. Etanercept was injected intraperitoneally three times a week over 4 weeks. Swelling of both hind paws was measured twice using a plethysmometer (LE7500 N, IWOO Scientific Corporation, KOREA) on day 22, 29, 31, 35, 38, 42, 45, 49, 52, and 56. The plethysmometer was used after calibration to a weight of 3 mL. The measured area was marked by drawing a line, and measurement was conducted adjacent to the ankle. Hind paw swelling increase (%) and hind paw swelling inhibition (%) were calculated using the following equations.
In order to observe the degree of bone damage in the hind paw, microcomputed tomography (micro-CT) was performed using a SkyScan 1172 (SkyScan, Aartselaar, Belgium). The total volume (TV; mm^3), bone volume (BV; mm^3) and bone volume fraction (BV/TV; %) were analyzed using CTAn software. On the 57th day, rats were sacrificed and subjected to histological analysis. Both hind paws and joints were collected, fixed in 10% buffered formalin, and demineralized in 30% citrate-buffered formic acid at 4° ° C. for 3 days. Paraffin blocks were produced, sliced into sections with a thickness of 4 μm and stained with hematoxylin and eosin (H&E), and then the pathological score was evaluated with an optical microscope. The joint inflammation index was measured based on the following criteria (Shiozawa et al., J Clin Invest. 1997; 99 (6):1210-1216). 0, normal synovium; 1, synovial membrane hypertrophy and cell infiltrates; 2, pannus and cartilage erosion; 3, major erosion of cartilage and subchondral bone; and 4, loss of joint integrity and ankylosis.
The rats were sacrificed and systemic blood was collected, and the concentrations of TNF-α and IL-6 in the blood were measured with an ELISA kit (R&D, Minneapolis, MN, USA).

T1 sequence (Q9UQL6 whole entry, species assumed): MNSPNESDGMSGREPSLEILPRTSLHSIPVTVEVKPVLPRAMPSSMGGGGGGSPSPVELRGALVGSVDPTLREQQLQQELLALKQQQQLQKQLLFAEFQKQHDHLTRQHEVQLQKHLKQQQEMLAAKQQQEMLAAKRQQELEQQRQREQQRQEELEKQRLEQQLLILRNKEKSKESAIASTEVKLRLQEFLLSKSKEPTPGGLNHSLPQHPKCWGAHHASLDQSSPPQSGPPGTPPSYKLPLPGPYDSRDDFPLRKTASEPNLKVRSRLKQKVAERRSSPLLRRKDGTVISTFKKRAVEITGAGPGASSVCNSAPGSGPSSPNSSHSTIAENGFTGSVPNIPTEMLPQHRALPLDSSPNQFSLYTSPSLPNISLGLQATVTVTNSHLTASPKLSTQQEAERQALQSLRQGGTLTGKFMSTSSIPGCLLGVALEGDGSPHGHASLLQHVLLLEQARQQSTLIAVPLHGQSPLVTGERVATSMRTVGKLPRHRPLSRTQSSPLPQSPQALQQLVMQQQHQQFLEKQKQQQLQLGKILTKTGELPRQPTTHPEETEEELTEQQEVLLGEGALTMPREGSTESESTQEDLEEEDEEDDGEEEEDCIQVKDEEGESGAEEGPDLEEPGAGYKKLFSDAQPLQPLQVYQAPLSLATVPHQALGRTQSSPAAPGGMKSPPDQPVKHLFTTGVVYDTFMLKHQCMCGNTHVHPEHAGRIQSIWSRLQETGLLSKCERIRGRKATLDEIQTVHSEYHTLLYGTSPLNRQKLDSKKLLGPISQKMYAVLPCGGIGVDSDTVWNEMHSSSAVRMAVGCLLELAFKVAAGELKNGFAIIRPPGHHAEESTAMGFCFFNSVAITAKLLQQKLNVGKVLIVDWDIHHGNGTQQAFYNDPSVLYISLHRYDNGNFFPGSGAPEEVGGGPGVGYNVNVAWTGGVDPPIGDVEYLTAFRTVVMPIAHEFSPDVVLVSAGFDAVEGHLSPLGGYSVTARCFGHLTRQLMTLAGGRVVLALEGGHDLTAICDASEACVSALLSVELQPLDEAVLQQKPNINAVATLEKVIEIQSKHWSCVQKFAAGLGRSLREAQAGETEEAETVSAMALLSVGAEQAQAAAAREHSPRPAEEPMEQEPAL
Protocol for HDAC5 protein: For this purpose, HDAC5 protein (Abcam, MA, USA) was dissolved in sodium acetate buffer (pH 4.5), and was bound to a dextran-covered sensor chip surface (CM5 chip) using N-hydroxysuccinimide (NHS) and N-ethyl-N0-(3-dimethylaminopropyl)-carbodiimide hydrochloride (EDAC) as crosslinkers. The unreacted active group of dextran was blocked by the addition of ethanolamine (1M) thereto. The number of HDAC5 binding to the chip was measured as 4440RU (1000 RU=1 ng/mm^2). […] Rate constants for association (ka) and dissociation (kd), and a dissociation constant (KD) were calculated using BIAevaluation software and a 1:1 binding model.

Consider `CSCC[C@H](NC(=O)[C@H](CS)NC(=O)[C@H](CCCCN)NC(=O)[C@H](CCCNC(=N)N)NC(=O)CNC(=O)[C@H](CCCNC(=N)N)NC(=O)[C@@H](NC(=O)[C@H](CO)NC(=O)[C@H](CS)NC(=O)[C@H](CCCCN)NC(=O)CN)[C@@H](C)O)C(=O)N[C@@H](CCCNC(=N)N)C(=O)N[C@@H](CCCNC(=N)N)C(=O)N[C@@H](CCCCN)C(=O)N[C@@H](CCCCN)C(=O)O` [SEQ ID NO: 2] (H-GKCSTRGRKCMRRKK-OH; N-terminus and C-terminus assumed), for which, at HDAC5 protein, the kd stood at 0.06872 s⁻¹ and the kon was determined as 74400 M⁻¹ s⁻¹.
In the same order, the values of `CSCC[C@H](NC(=O)[C@H](CCCCN)NC(=O)[C@H](CCCNC(=N)N)NC(=O)CNC(=O)[C@H](CCCNC(=N)N)NC(=O)[C@@H](NC(=O)[C@H](CO)NC(=O)[C@H](CS)NC(=O)[C@H](CCCCN)NC(=O)CN)[C@@H](C)O)C(=O)N[C@@H](CS)C(=O)N[C@@H](CCCNC(=N)N)C(=O)N[C@@H](CCCNC(=N)N)C(=O)N[C@@H](CCCCN)C(=O)N[C@@H](CCCCN)C(=O)O` [SEQ ID NO: 3] (H-GKCSTRGRKMCRRKK-OH; N-terminus and C-terminus assumed) are 0.05953 s⁻¹ and 82100 M⁻¹ s⁻¹.
`CSCC[C@H](NC(=O)[C@H](CCCCN)NC(=O)[C@H](CCCNC(=N)N)NC(=O)CNC(=O)[C@H](CCCNC(=N)N)NC(=O)[C@@H](NC(=O)[C@H](CO)NC(=O)[C@H](CS)NC(=O)[C@H](CCCCN)NC(=O)CN)[C@@H](C)O)C(=O)N[C@@H](CCSC)C(=O)N[C@@H](CCCNC(=N)N)C(=O)N[C@@H](CCCNC(=N)N)C(=O)N[C@@H](CCCCN)C(=O)N[C@@H](CCCCN)C(=O)O` [SEQ ID NO: 4] (H-GKCSTRGRKMMRRKK-OH; N-terminus and C-terminus assumed): on HDAC5 protein, the Kd (in general, the equilibrium constant for the complex coming apart) was found to be 940 nM; the kd is 0.06788 s⁻¹; the kon turned out to be 72200 M⁻¹ s⁻¹.
For `CSCC[C@H](NC(=O)[C@H](CCCCN)NC(=O)CN)C(=O)N[C@@H](CO)C(=O)N[C@H](C(=O)N[C@@H](CCCNC(=N)N)C(=O)NCC(=O)N[C@@H](CCCNC(=N)N)C(=O)N[C@@H](CCCCN)C(=O)N[C@@H](CS)C(=O)N[C@@H](CS)C(=O)N[C@@H](CCCNC(=N)N)C(=O)N[C@@H](CCCNC(=N)N)C(=O)N[C@@H](CCCCN)C(=O)N[C@@H](CCCCN)C(=O)O)[C@@H](C)O` [SEQ ID NO: 5] (H-GKMSTRGRKCCRRKK-OH; N-terminus and C-terminus assumed), on HDAC5 protein, the kd was 0.03088 s⁻¹ and the kon came to 65900 M⁻¹ s⁻¹.
Regarding `CSCC[C@H](NC(=O)[C@H](CCCCN)NC(=O)CN)C(=O)N[C@@H](CO)C(=O)N[C@H](C(=O)N[C@@H](CCCNC(=N)N)C(=O)NCC(=O)N[C@@H](CCCNC(=N)N)C(=O)N[C@@H](CCCCN)C(=O)N[C@@H](CCSC)C(=O)N[C@@H](CS)C(=O)N[C@@H](CCCNC(=N)N)C(=O)N[C@@H](CCCNC(=N)N)C(=O)N[C@@H](CCCCN)C(=O)N[C@@H](CCCCN)C(=O)O)[C@@H](C)O` [SEQ ID NO: 6] (H-GKMSTRGRKMCRRKK-OH; N-terminus and C-terminus assumed), at HDAC5 protein, binding was characterised by a dissociation constant (Kd) of 444 nM, the kd turned out to be 0.04463 s⁻¹ and the kon is 100000 M⁻¹ s⁻¹.
The like results for `CSCC[C@H](NC(=O)[C@H](CCCCN)NC(=O)CN)C(=O)N[C@@H](CO)C(=O)N[C@H](C(=O)N[C@@H](CCCNC(=N)N)C(=O)NCC(=O)N[C@@H](CCCNC(=N)N)C(=O)N[C@@H](CCCCN)C(=O)N[C@@H](CS)C(=O)N[C@@H](CCSC)C(=O)N[C@@H](CCCNC(=N)N)C(=O)N[C@@H](CCCNC(=N)N)C(=O)N[C@@H](CCCCN)C(=O)N[C@@H](CCCCN)C(=O)O)[C@@H](C)O` [SEQ ID NO: 7] (H-GKMSTRGRKCMRRKK-OH; N-terminus and C-terminus assumed) were, in that order, 704 nM, 0.04757 s⁻¹ and 67500 M⁻¹ s⁻¹.
In the same order, the values of `CSCC[C@H](NC(=O)[C@H](CCCCN)NC(=O)CN)C(=O)N[C@@H](CO)C(=O)N[C@H](C(=O)N[C@@H](CCCNC(=N)N)C(=O)NCC(=O)N[C@@H](CCCNC(=N)N)C(=O)N[C@@H](CCCCN)C(=O)N[C@@H](CCSC)C(=O)N[C@@H](CCSC)C(=O)N[C@@H](CCCNC(=N)N)C(=O)N[C@@H](CCCNC(=N)N)C(=O)N[C@@H](CCCCN)C(=O)N[C@@H](CCCCN)C(=O)O)[C@@H](C)O` [SEQ ID NO: 8] (H-GKMSTRGRKMMRRKK-OH; N-terminus and C-terminus assumed) are 86.8 nM, 0.004776 s⁻¹ and 55000 M⁻¹ s⁻¹.
Consider etanercept [reference compound], for which the “Concentration of IL-6 in blood” value in assay [1] (ELISA, high concentration of peptide or etanercept, CIA-induced group 109 pg/ml) was 24 pg/mL. Also, the “Concentration of TNF-α in blood” value in assay [1] (ELISA, high concentration of peptide or etanercept, CIA-induced group 128 pg/ml) worked out at 39 pg/mL. Also, the “Microscopic observation of joint tissues (inflammation, H&E)” value in assay [1] (FIG. 4A) is given as “results similar to the CIA-induced group injected with a low concentration of SEQ ID NO: 1”. Further, the “Hind paw swelling inhibition (%)” value in assay [1] (etanercept 10 mg/kg intraperitoneally) was determined as 37%. Moreover, in assay [1] (peptide 15 or 30 mg/kg subcutaneously twice a week, etanercept 10 mg/kg intraperitoneally three times a week, 4 weeks), the “Hind paw swelling (%)” value is on record as “decreased hind paw swelling (%) within 35 to 56 days (P<0.05)”. The Inflammation index in assay [1] (score 0-4, CIA-induced group 3.3±0.67) is 2.3±1.16.
